Series [1] is described as follows: Effective permeability of the compound measured after 5 hrs by PAMPA. Format: ADME. The settings on record: read-out: Peff. (In PAMPA a lipid-coated filter parts donor from acceptor wells.)
For series [2], the target named is Phosphatidylinositol 4,5-bisphosphate 3-kinase catalytic subunit gamma isoform (Homo sapiens, UniProt P48736). Kind of series: Inhibition of PI3Kgamma (unknown origin) using PIP2 as substrate measured after 1 hr by Kinase-Glo luminescence assay. Background: Kinase-Glo reads ATP consumption through a luciferase reaction.
Phosphatidylinositol 4,5-bisphosphate 3-kinase catalytic subunit gamma isoform, sequence (P48736 whole entry, canonical isoform): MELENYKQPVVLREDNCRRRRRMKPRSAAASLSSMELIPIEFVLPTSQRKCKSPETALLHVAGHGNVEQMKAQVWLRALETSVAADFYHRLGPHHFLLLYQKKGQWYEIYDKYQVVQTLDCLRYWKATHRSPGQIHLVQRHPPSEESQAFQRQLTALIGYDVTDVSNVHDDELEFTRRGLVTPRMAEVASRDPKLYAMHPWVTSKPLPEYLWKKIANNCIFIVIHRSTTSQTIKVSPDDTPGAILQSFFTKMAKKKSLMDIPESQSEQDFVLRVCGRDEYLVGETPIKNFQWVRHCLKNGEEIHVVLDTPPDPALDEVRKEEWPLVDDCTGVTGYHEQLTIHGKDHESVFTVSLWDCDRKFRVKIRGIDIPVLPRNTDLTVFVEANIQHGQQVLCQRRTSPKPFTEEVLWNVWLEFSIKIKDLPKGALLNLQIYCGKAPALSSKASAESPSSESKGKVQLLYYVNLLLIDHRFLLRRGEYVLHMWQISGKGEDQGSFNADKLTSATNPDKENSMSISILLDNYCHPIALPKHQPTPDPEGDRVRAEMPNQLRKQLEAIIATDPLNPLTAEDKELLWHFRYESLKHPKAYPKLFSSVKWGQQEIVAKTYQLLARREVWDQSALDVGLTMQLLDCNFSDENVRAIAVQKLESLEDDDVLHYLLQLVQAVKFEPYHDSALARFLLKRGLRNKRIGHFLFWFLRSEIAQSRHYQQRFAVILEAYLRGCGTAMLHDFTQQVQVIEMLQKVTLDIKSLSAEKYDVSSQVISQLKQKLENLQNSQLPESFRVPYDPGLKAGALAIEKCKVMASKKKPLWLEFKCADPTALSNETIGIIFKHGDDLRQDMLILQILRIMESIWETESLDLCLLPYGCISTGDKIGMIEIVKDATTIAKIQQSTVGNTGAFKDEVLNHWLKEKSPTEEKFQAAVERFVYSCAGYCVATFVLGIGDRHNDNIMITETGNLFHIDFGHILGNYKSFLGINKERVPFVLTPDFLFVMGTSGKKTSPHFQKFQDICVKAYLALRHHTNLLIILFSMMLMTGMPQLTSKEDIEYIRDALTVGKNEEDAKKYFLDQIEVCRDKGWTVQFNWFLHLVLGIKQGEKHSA
For series [3], the system named is U-87 MG. In words: Antiproliferative activity against human U87MG cells after 4 days by Celltiter-Glo luminescence cell viability assay. The note with it: 96 h. Format: functional, cell-based, U-87MG ATCC.

The values that follow come from ChEMBL document CHEMBL4219058, “Discovery of new thienopyrimidine derivatives as potent and orally efficacious phosphoinositide 3-kinase inhibitors” (Bioorg Med Chem, 2018).

Take `COc1ncc(-c2cc3c(C)nc(N)nc3s2)cc1NS(=O)(=O)c1ccc(F)cc1F`: in series [1], the Papp at 5 h stood at 4.8 ×10⁻⁶ cm/s.
A word on the IC50: it is the concentration at which inhibition is half-maximal. High values mean a need for much substance, low ones inhibition by little substance. `COc1ncc(-c2cc3c(C)nc(NC(C)=O)nc3s2)cc1NS(=O)(=O)c1ccc(F)cc1F`: the Papp at 5 h in series [1] is 9.6 ×10⁻⁶ cm/s. In addition, the IC50 in series [2] stood at 11 nM.
With `COc1ccc(-c2cc3c(C)nc(N)nc3n([C@H]3CC[C@H](OCCO)CC3)c2=O)cn1` [PF-04691502], in series [3], half-maximal inhibition (IC50) was put at 340 nM.
